Reference: patent US20210278408A1, “METHODS OF TREATMENT OF CANCER WITH SUBSTITUTED PYRROLE AND PYRAZOLE COMPOUNDS AND DIAGNOSIS OF CANCERS SUSCEPTIBLE TO TREATMENT WITH SUBSTITUTED PYRROLE AND PYRAZOLE COMPOUNDS” (Bantam Pharmaceutical, LLC, priority 2018, published 2021)

Tests used:
[1] = tested on: Autophagy; test: High content imaging screen: autophagy (LC3 cleavage, autophagic granules); type: cell-based
Description: (§1) Mechanism of Action Screens A series of broad high content imaging, transcriptomic, metabolomic, and CRISPR KO screens were performed to link Compound A197 activity to a probable method of action. The outcome of these screens included two notable observations.

[2] = tested on: HDAC; test: In vitro assays: HDAC; type: biochemical
Description: as §1

[3] = tested on: NHLF; test: Total cellular GSH levels (GSH-Glo): NHLF; type: cell-based, human; details: 4 hrs
Description: NHLF, BJAB, SU-DHL-2, and HCT-116 cells were treated with Compound A197 for 4 hours prior to lysate harvest. Total cellular glutathione (GSH) levels were determined using a luminescent endpoint (GSH-Glo, Promega). Cell proliferation was determined using Cell-Titre Glo following 72 hours of compound treatment. All data shown is mean±SD of three biological replicates.

[4] = tested on: HCT-116 xenograft; test: Human tumor xenograft model, colorectal cancer cell line HCT-116; type: in vivo
Description: FIG. 10 is a set of graphs of in vivo treatment results for Athymic Nude mice engrafted with the DLBCL line SU-DHL-10 (left panel) or the CRC line HCT-116 (right panel). After 14 days, groups of mice (n=10 per group) were randomized by tumor volume and treated with Compound B19 (left panel) or Compound A197 (right panel). All animals dosed p.o. q.d. (orally once per day). Tumor burden was measured over 21 days. Compound B19 efficacy was monitored for 21 days following last dose to determine relapse. All data plotted as the mean±SEM, n=10 mice per group.
The positive results of the PK studies led to an evaluation of Compound A197 and Compound B19 in murine xenograft models of human tumors. Compound A197 was tested in a human tumor xenograft model using KRAS mutated colorectal cancer cell line HCT-116. Athymic nude mice (HSD:Athymic Nude-Foxn1 nu, Envigo) were inoculated subcutaneously with 5×10^6 HCT-116 cells in the right rear flank. The animals wethen staged and randomized by tumor size to achieve dose groups of 10 animals each with an average tumor volume of 150 mm^3. Tumor bearing mice were dosed once daily by oral gavage with a vehicle (5% NMP, 15% PEG400, 10% Solutol, and 70% D5W) or with A197 dissolved in vehicle to provide a dose concentration of 10 ml/kg. Compound B19 was tested in a human xenograft model using the human diffuse large B-cell lymphoma line SU-DHL-10 (ATCC). […]

[5] = tested on: SU-DHL-2; test: Apoptosis, 72 hr: SU-DHL-2; type: cell-based, human
[6] = tested on: DNA Damage; test: High content imaging screen: DNA damage (Histone H2A.x phosphorylation); type: cell-based; details: Histtone H2A.x phosphorylation as marker
Description: as §1

[7] = tested on: GPCR; test: In vitro assays: GPCR; type: biochemical; details: 69 family members

Cc1nn(-c2nc(-c3ccc(C(F)(F)F)cc3)c(SC(C)C)s2)c(C(=O)O)c1-c1cccc(F)c1 [Compound A197, 4-(3-fluorophenyl)-1-(5-(isopropylthio)-4-(4-(trifluoromethyl)phenyl)thiazol-2-yl)-3-methyl-1H-pyrazole-5-carboxylic acid]
Outcome: Autophagy [1]: No detectable LC3 cleavage; no formation of
Outcome: HDAC [2]: No activity on any HDAC
GSH % Max reduction [3]: 0%
tumor growth in the solid tumor model ([4]; HCT-116 xenograft, once daily oral gavage, 21 days, p<01 for 75 and 30 mpk doses): significantly slower growth
tolerability, signs of toxicity ([4]; markers of liver function, metabolism, and myelopoiesis, tumor bearing mice (data not shown)): well-tolerated with no overt signs of toxicity
Apoptosis, 72 hr [5]: Yes
Outcome: DNA Damage [6]: No evidence of DNA damage using Histtone H2A.x
Outcome: GPCR [7]: No activity on 69 family members
